Peptide text beside a SMILES is read from it. * marks the point of attachment. Geranylgeranyl = CC(C)=CCC/C(C)=C/CC/C(C)=C/CC/C(C)=C/C*; X1 = O=C(O)c1cc(C(=O)*)ccc1-c1c2ccc(=O)cc-2oc2cc(O)ccc12; Pent4ynoyl = C#CCCC(=O)*
How the values were obtained:
Type in all cases: ADME, cell-based
[1] = system: HeLa; experiment: Cellular uptake in human HeLa cells at 1 uM after 2 hrs by confocal laser scanning microscopy
[2] = system: HeLa; experiment: Cellular uptake in human HeLa cells assessed as nuclear localization at 1 uM after 2 hrs by confocal laser scanning microscopy
[3] = system: HeLa; experiment: Cellular uptake in human HeLa cells at 1 to 5 uM treated for 1 hr followed by washout measured after 1 hr by flow cytometry

| Drug uptake [1] | Drug uptake [2] | Drug uptake [3] | SMILES |
| --- | --- | --- | --- |
| Active | Not Active | Active | C#CCCC(=O)N[C@@H](CCCCNC(=O)c1ccc(-c2c3ccc(=O)cc-3oc3cc(O)ccc23)c(C(=O)O)c1)C(=O)N[C@@H](C)C(=O)N[C@@H](CCCCN)C(=O)N[C@@H](CCCCN)C(=O)N[C@@H](CO)C(=O)N[C@@H](CCCNC(=N)N)C(=O)N[C@@H](CCCNC(=N)N)C(=O)N[C@@H](CSC/C=C(\C)CC/C=C(\C)CC/C=C(\C)CCC=C(C)C)C(N)=O (Pent4ynoyl-K(X1)AKKSRRC(Geranylgeranyl)-NH2) |
| Active | Active | – | C#CCCC(=O)N[C@@H](CCCCNC(C)=O)C(=O)N[C@@H](C)C(=O)N[C@@H](CCCCN)C(=O)N[C@@H](CCCCN)C(=O)N[C@@H](CO)C(=O)N[C@@H](CCCNC(=N)N)C(=O)N[C@@H](CCCNC(=N)N)C(=O)N[C@@H](CSC/C=C(\C)CC/C=C(\C)CC/C=C(\C)CCC=C(C)C)C(N)=O (Pent4ynoyl-K(Ac)AKKSRRC(Geranylgeranyl)-NH2) |

Reference: ChEMBL document CHEMBL1817633, “Evaluation of a cell penetrating prenylated peptide lacking an intrinsic fluorophore via in situ click reaction” (Bioorg Med Chem Lett, 2011)
